Measured values from ChEMBL document CHEMBL1955819, “Ketoolivosyl-tetracenomycin C: a new ketosugar bearing tetracenomycin reveals new insight into the substrate flexibility of glycosyltransferase ElmGT” (2012).
Calls of active or inactive are those of the source. The rule behind the calls is not given here.

Columns and labels:
Escherichia coli = assay: Antimicrobial activity against Escherichia coli XL1-blue at 1 mg/mL by disc diffusion assay; format: functional, organism-based
Rhizomucor miehei = assay: Antimicrobial activity against Mucor miehei at 1 mg/mL by disc diffusion assay; format: functional, organism-based
Streptomyces prasinus = assay: Antimicrobial activity against Streptomyces prasinus at 1 mg/mL by disc diffusion assay; format: functional; details: read-out: DIZ

| Compound | Activity (Escherichia coli) | Activity (Rhizomucor miehei) | zone of inhibition at 1000 µg/mL (Streptomyces prasinus) [mm] |
| --- | --- | --- | --- |
| COC(=O)c1c(O[C@H]2C[C@H](O)C(=O)[C@H](C)O2)cc2cc3c(c(O)c2c1C)C(=O)[C@]1(O)C(=O)C=C(OC)[C@@H](O)[C@]1(O)C3=O | inactive | inactive | 12 |
| COC(=O)c1c(O[C@@H]2O[C@@H](C)[C@H](OC)[C@@H](OC)[C@H]2OC)cc2cc3c(c(O)c2c1C)C(=O)[C@]1(OC)C(=O)C=C(OC)[C@@H](O)[C@]1(O)C3=O [ELLORAMYCIN] |  |  | 25 |
